In patent publication US20190038209A1, “Using Spectral CT to Diagnose Thyroid Nodules” (BOARD OF REGENTS, THE UNIVERSITY OF TEXAS SYSTEM, priority 2016, published 2019):

Assay: Spectral CT iodine-no-water map of rat thyroid before and after oral potassium iodide
Assay type: in vivo
Conditions: Fischer rats, 654 mg potassium iodide (500 mg iodine) oral gavage, 10 hours of uptake; baseline 1.5 mg I/mL
Description: Next, a Philips IQon Spectral CT scanner was used to obtain in vivo animal data. Three healthy female Fischer rats ranging from 150 g to 250 g mass were each anesthetized using 2.5% isoflurane and scanned in a supine position using the highest resolution settings for the IQon Spectral CT clinical scanner (0.625 mm slice thickness with 0.20 mm in-plane pixel resolution). The baseline endogenous iodine levels within the rat thyroid were measured using the iodine-no-water map and averaged 1.5 mg I/mL. These levels are similar to the baseline endogenous iodine levels found within healthy human thyroid tissue. The rats were then each given a bolus dose of 654 mg of potassium iodide (equivalent to 500 mg of iodine) that was dissolved in 1 mL of water and administered orally using a gavage. After 10 hours of uptake the rats were again anesthetized with 2.5% isoflurane and scanned a second time on the IQon Spectral CT using the same settings as before. The iodine levels within the rat thyroid now averaged 3.0 mg I/mL, or a 100% increase in iodine. […] Generally, a 500 mg dose of oral iodine given to humans can increase the level of organified iodine in the thyroid tissue (after a full 24 hours of uptake) from 1.5 mg I/mL to 5-10 mg I/ml depending on total thyroid volume. […]

Structure (SMILES): [I-].[K+] [potassium iodide]
- iodine levels within the rat thyroid (average): 3.0 mg I/mL
